The results in this text go back to patent US8785149B2, “In vitro cellular bioassay for neurotoxicity testing” (The Arizona Board of Regents on Behalf of the University of …, priority 2010, dated 2014).

“Also recorded” adds a separate entry of the source.

Data set [1] concerns fascin-deficient singed-mutant neurons. Briefly: Primary neuron culture neurotoxicity screen, fascin-deficient neurons. The note with it: 3 days in vitro; for beads-on-a-string (BOS) defect (intra-neurite nodules): singed (sn) mutant larval CNS neurons; for neurotoxic defects: 10 and 50 μM, phase-contrast morphology; for BOS effect in sn-mutant, fascin-deficient neurons relative to wild-type: at each dose; for BOS density versus dose: wild-type and sn-mutant neurons, randomly selected neurons. From the text: Following this enzymatic treatment, the tissue is washed and then mechanically triturated in culture medium to dissociate it into single cells.

Data set [2] has as its system wild-type (OreRC) neurons.
Data set [3] deals with cultured neurons with mutations in the Drosophila fragile X mental retardation 1 gene (dfmr1). It counts as cell-based. From the text: In this case, the genetic control was designed (Michel et al. (2004). J. Neurosci., 23:5798-5809) to be identical in every possible way, except for the presence or absence of a normal dfmr1 gene.

In the case of `CC(C)c1c(C(=O)Nc2ccccc2)c(-c2ccccc2)c(-c2ccc(F)cc2)n1CC[C@@H](O)C[C@@H](O)CC(=O)O` [atorvastatin], the “beads-on-a-string (BOS) defect (intra-neurite nodules)” value (“beads-on-a-string (BOS) defect” below) in data set [1] was “beads-on-a-string (BOS) defect; also recorded: induced”. For the same compound, the neurite outgrowth entry in data set [2] is recorded as “inhibition of neurite outgrowth”.

In the case of `C[C@@H]1O[C@@H](O[C@H]2C[C@@H](O)[C@]3(CO)[C@H]4[C@H](O)C[C@]5(C)[C@@H](C6=CC(=O)OC6)CC[C@]5(O)[C@@H]4CC[C@]3(O)C2)[C@H](O)[C@H](O)[C@H]1O` [ouabain], the neurotoxic defects result in data set [1] is on record as “overt neurotoxic defects”.

`CC[C@H](C)C(=O)O[C@H]1C[C@@H](C)C=C2C=C[C@H](C)[C@H](CC[C@@H]3C[C@@H](O)CC(=O)O3)[C@H]21` [lovastatin]: in data set [1], the “beads-on-a-string (BOS) defect” value is recorded as “beads-on-a-string (BOS) defect; also recorded: induced”.

For `C[CH2][Hg][S]c1ccccc1C(=O)[O-].[Na+]` [thimerosal], the neurotoxic defects result in data set [1] was “overt neurotoxic defects”.

For the compound `CC(=O)O[C@H]1C(=O)[C@@]2(C)[C@H]([C@H](OC(=O)c3ccccc3)[C@]3(O)C[C@H](OC(=O)[C@H](O)[C@@H](NC(=O)c4ccccc4)c4ccccc4)C(C)=C1C3(C)C)[C@]1(OC(C)=O)CO[C@@H]1C[C@@H]2O` [paclitaxel], the neurotoxic defects result in data set [1] is given as “overt neurotoxic defects”.

For the compound `CC(C)c1nc(N(C)S(C)(=O)=O)nc(-c2ccc(F)cc2)c1/C=C/[C@@H](O)C[C@@H](O)CC(=O)O` [rosuvastatin], in data set [1], the “BOS effect in sn-mutant, fascin-deficient neurons relative to wild-type” value is “enhanced the sensitivity”; the “beads-on-a-string (BOS) defect” value is listed as “beads-on-a-string (BOS) defect; also recorded: induced”; the “BOS density versus dose” value is reported as “increased with dose”.

For `C[C@@H]1C[C@@H]([C@H](O)CC2CC(=O)NC(=O)C2)C(=O)[C@@H](C)C1` [cycloheximide], the neurotoxic defects entry in data set [1] was “overt neurotoxic defects”.

As for `COc1ccc(C[C@H]2NC[C@H](O)[C@H]2OC(C)=O)cc1` [anisomycin], in data set [1], the neurotoxic defects result is listed as “overt neurotoxic defects”.

For the compound `CC[C@H](C)C(=O)O[C@H]1C[C@H](O)C=C2C=C[C@H](C)[C@H](CC[C@@H](O)C[C@@H](O)CC(=O)O)[C@H]21` [pravastatin], in data set [3], the “severity of BOS defect in dfmr1-mutant neurons versus control neurons” value is listed as “less severe BOS defect”. Further, in data set [1], the “BOS effect in sn-mutant, fascin-deficient neurons relative to wild-type” value was “enhanced the sensitivity”; the “beads-on-a-string (BOS) defect” value is on record as “beads-on-a-string (BOS) defect; also recorded: induced”; the “BOS density versus dose” value is “increased with dose”.
